From BindingDB's records for doi:10.1002/cbic.201100587 (2012)

Biological target: Glutamine--fructose-6-phosphate transaminase (isomerizing) (Saccharomyces cerevisiae (strain YJM789), UniProt A6ZZL3)
Experiment: Inhibition Assay
From the text: The inhibition assay was followed under standard conditions with saturating concentrations of both substrates to determine the IC50 values.

Glutamine--fructose-6-phosphate transaminase (isomerizing), sequence (A6ZZL3 whole entry): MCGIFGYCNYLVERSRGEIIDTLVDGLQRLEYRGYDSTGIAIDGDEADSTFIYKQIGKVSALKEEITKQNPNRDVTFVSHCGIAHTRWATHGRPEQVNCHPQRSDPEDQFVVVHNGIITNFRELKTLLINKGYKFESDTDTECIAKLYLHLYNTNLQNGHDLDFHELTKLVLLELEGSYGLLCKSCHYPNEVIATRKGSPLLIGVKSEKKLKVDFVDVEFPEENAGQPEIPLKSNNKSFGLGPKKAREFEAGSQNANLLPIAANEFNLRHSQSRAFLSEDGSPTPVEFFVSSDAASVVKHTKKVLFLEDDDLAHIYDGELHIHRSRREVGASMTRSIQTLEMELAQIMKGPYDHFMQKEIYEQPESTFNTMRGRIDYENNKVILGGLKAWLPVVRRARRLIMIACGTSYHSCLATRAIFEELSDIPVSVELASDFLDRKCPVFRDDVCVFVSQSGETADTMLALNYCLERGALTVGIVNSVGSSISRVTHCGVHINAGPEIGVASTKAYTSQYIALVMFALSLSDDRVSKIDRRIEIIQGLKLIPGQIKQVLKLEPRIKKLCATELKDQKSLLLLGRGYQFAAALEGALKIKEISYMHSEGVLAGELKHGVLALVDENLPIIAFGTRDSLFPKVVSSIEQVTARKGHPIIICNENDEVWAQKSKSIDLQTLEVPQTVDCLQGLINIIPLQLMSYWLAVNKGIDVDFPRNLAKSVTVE

**Q.** Which results are given for CC(=O)C=CC(=O)NC[C@H](N)C(=O)O [N3-Oxoacyl derivative, 4]?
**A.** IC50: 5.6 mM; Ki: 15.2 mM

**Q.** For N[C@@H](CNC(=O)/C=C/C(=O)c1ccccc1)C(=O)O [N3-Oxoacyl derivative, 3], which IC50 is on record?
**A.** Its IC50 is 0.27 mM.

**Q.** What about the Ki of the same compound?
**A.** The Ki was 0.0565 mM.

**Q.** With N[C@@H](CNC(=O)[C@@H]1O[C@H]1C(=O)c1ccccc1)C(=O)O [N3-Oxoacyl derivative, 1] as the compound, how does the IC50 read?
**A.** Its IC50 is 0.66 mM.

**Q.** And the Ki?
**A.** The Ki was 0.45 mM.

**Q.** Which IC50 does the source give for CC(=O)[C@@H]1O[C@H]1C(=O)NC[C@H](N)C(=O)O [N3-Oxoacyl derivative, 2] here?
**A.** The IC50 was 7.35 mM.

**Q.** And the Ki?
**A.** The Ki was 19.4 mM.
